Assay results taken from publication PMC6511062, “Preclinical candidate for the treatment of visceral leishmaniasis that acts through proteasome inhibition” (Proceedings of the National Academy of Sciences of the …, 2019).
“Also recorded” adds a separate entry of the source.

Tests used:
mouse lymphoma cells = experiment: Mouse lymphoma assay
Procedure: oxidative metabolism system (S9-mix). […]
The maximum […]
concentrations analysed were 410.45 µg/mL (1 mM, the maximum concentration in accordance with current guidelines and 100 µg/mL (limited by toxicity), for the 3 and […]
The mouse lymphoma screen was carried out using test methodology based on established procedures for in vitro gene mutation testing17,18,19,20. […]

[1] = tested on: caspase activity of the L. donovani proteasome; experiment: Proteasome activity assay, caspase-like, L. donovani; type: biochemical, Leishmania donovani
Procedure: k. Proteasome activity assays
Compounds were dispensed into black 384-well assay plates (Greiner) by acoustic dispensing (LabCyte ECHO). For potency determinations, eleven-point, one in three dilution curves were generated, with a top concentration of 100 µM. Three proteasome activities were measured using a commercially available indirect enzyme-based luminescent assay kit (Promega) with Suc-LLVY-aminoluciferin, Z-LRR-aminoluciferin and Z-nLPnLD-aminoluciferin used as substrates for chymotrypsin-like, trypsin-like and caspase-like activities, respectively. In addition to proteasome samples: L. donovani and THP1-enriched proteasomes, commercially available human purified 26S proteasome (Boston Biochem) was also assessed. Proteasome final assay concentration were 0.025 mg/ml for L. donovani and THP1-enriched proteasomes and 1 nM for human purified 26S proteasome. Proteasome solution was added to the plates containing the compounds one hour before adding the proteasome substrate solution.
Substrate solution was then added and after 30 min of incubation luminescent signal was measured in an Envision reader (PerkinElmer).
Cultures of L. donovani axenic amastigotes were diluted to either 8 x 106 or 8 x 107 […]
value. […]
value) were used as negative and positive controls, respectively. […] Protein concentrations were determined by standard Bradford assays and Laemmli sample buffer was added to samples. […]

[2] = tested on: L. donovani proteasome β subunits; experiment: Activity-based probe (UbiQ-018) labelling of L. donovani proteasome; type: binding, Leishmania donovani; conditions: 100 µM
Procedure: m. Activity-Based Probe Labelling of THP1 and L. donovani proteasome
Proteasome enriched fractions from THP1 (20 µg), L. donovani (10 µg) and L. donovani […]
µM for 1 h. Proteasome enriched fractions were also incubated with DMSO as control.
For all proteasome labelling experiments, the active-site probe Me4BodipyFL-Ahx3Leu3VS (UbiQ-018) was used at final concentration of 500 nM in sucrose buffer (50 mM Tris buffer pH 7.5, 5 mM magnesium chloride, 1 mM EDTA, 50 mM NaCl, 250 mM sucrose, 2 mM ATP, 1 mM DTT). Proteasome enriched fractions treated with […]
DMSO or test compounds, were incubated with the probe for 2h at RT. Samples were then denatured by addition of Laemmli sample buffer, heated to 95°C for 10 min and separated by electrophoresis on a 15% SDS-PAGE acrylamide gel. Following separation, gels were scanned in the fluorescein channel of a ChemiDoc reader (λ excitation/emission = 480/530 nm). Fluorescent proteins were excised and MALDI– TOF analysis carried out by the FingerPrints Proteomics service at the University of […]
10. Measuring Proteolytic activity of Leishmania tarentolae Proteasome […]
pre-prepared as a 10 mM stocks in 100 % DMSO and then diluted 1 in 3, over 11 points, prior to dispense of 100 nl of each dilution series into black, low volume, 384-well microplates. Proteasome was prepared as a 0.5 µg/mL working solution in assay buffer (50 mM HEPES (pH 7.5), 150 mM NaCl, 5 mM MgCl2, 5% glycerol, 1 mM CHAPS) and 5 µL was added using a Multidrop Micro (Thermo Fisher Scientific) to all wells containing compound dilutions on the test microplates. The microplates were then centrifuged for 1 min at 1000 rpm and incubated for 15 mins at 25 °C, prior to an assay initiating addition of 5 µl of fluorogenic substrate, which had been prepared as a 1 µM […]
The assay microplates were then centrifuged for 10 secs before using a Tecan M1000 Pro to monitor the increase of fluorescent intensity at 25 °C by excitation of the liberated Rhodamine110 at 485 nm and emission at 535 nm every 125 secs for 20 cycles. […]
calculate initial rates of reactions for all assay wells on the microplate by fitting to a linear regression model. The initial rates of reaction for all compound concentrations tested were normalised to the initial rates determined for 16 replicate control wells per microplate of both uninhibited reaction and no-proteasome background, and subsequently, IC50 values were determined by fitting the normalised data to the following four-parameter logistic model; y = a + (( b – a) / ( 1 + ( 10 ^ x / 10 ^ c ) ^ d ), where ‘a’ is the minimum, ‘b’ is […], ‘c’ is the IC50 and ‘d’ is […].
11. Cryo-EM of 20S Leishmania tarentolae proteasome a. Purification of 20S Leishmania tarentolae proteasome. […]

O=C(Nc1ccc(F)c(-c2ccn3c(N4CCOCC4)cnc3n2)c1)N1CCCC1 [Compound 8]
MF (Mutation Frequency) (mouse lymphoma cells; 3 hour +S9 treatment, 375 µg/mL): 191.25 ×10-6 | MF (Mutation Frequency) (mouse lymphoma cells; 3 hour +S9 treatment, 410.445 µg/mL): 222.38 ×10-6 | mouse lymphoma screen result (mouse lymphoma cells; 3 hours with S9-mix and 24 hours without S9-mix): negative | MF (Mutation Frequency) (mouse lymphoma cells; 24 hour -S9 treatment, 40 µg/mL): 75.89 ×10-6 | MF (Mutation Frequency) (mouse lymphoma cells; 24 hour -S9 treatment, 70 µg/mL): 78.36 ×10-6 | MF (Mutation Frequency) (mouse lymphoma cells; 24 hour -S9 treatment, 100 µg/mL): 86.96 ×10-6 | effect on caspase activity [1]: no effect | UbiQ-018 labelling of proteasome subunits ([2]; L. donovani WT extracts): selectively blocks labeling of β5; also recorded: selectively blocked UbiQ-018 labeling of the β5 subunit | UbiQ-018 labelling of proteasome subunits ([2]; L. donovani-resistant RES II extracts): could not be abolished
